# Assay results as given in paper PMC5025780, “Copper(II) ions affect the gating dynamics of the 20S proteasome: a molecular and in cell study” (Scientific Reports, 2016).
# What was measured:
# [1] = test system: ubiquitinated proteins in Hela cells; assay: Western blot of polyubiquitinated proteins in HeLa cells; type: cell-based, human; details: 20 and 80 μM Cu(II), 24 hours
# Protocol: After 24 h of copper(II) treatment (20–80 μM), HeLa cells were washed with cold PBS, and lysed with 100 μL of RIPA buffer for 5 minutes at 4 °C, sonicated and centrifuged for 10 minutes at 4 °C (1400 rpm). The protein content of lysates is quantified using the BCA method, (protein assay kit, BioRad). Western blotting analysis for polyUb chains was performed on total protein extracts ([…]). Samples were loaded onto 4–12% bis-Tris gel, (Invitrogen). After separation, proteins were transferred onto a nitrocellulose membrane. Membranes were blotted at 4 °C O/N with the following primary antibodies: rabbit monoclonal anti-polyubiquitin (linkage specific K48) (1:2500, Abcam), and mouse anti-β-actin (1:1000, Sigma Aldrich). Secondary goat anti-rabbit labeled with IRDye 680 (1:25.000 Li-COR Biosciences) and goat anti-mouse labeled with IRDye 800 (1:25.000 Li-COR Biosciences) were used at RT for 45 min. Hybridization signals were detected with the Odyssey Infrared Imaging System (LI-COR Biosciences).
# HeLa cells = test system: HeLa cells; set-up: method as in PMID 9057888, PMID 21584299; details: Cu(II)-supplemented media up to 100 μM; cited from earlier work
smiles,measurement,setting,value
"[Cl][Cu][Cl] [Cu(II), CuCl2]",Accumulation of ubiquitinated proteins,[1],enhanced the accumulation of ubiquitinated proteins
same,HeLa cell growth,HeLa cells,not inhibited
